Activity calls are given as the source filed them. No cut-off for these calls is given here.
These molecules were tested on Mus musculus (assay: Evaluated for antimalarial activity against Plasmodium berghei in mice (Mus musculus) at 90 mg/kg; active).
Assay type: functional, organism-based
Parameters: dose 90 mg/kg

SMILES	Activity
C=C(c1ccc(Cl)cc1)C1COC2(CCCC2)OO1 (stereo unspecified)	Active
C=C(c1ccc(F)cc1)C1COC2(CCCCC2)OO1 (stereo unspecified)	Active
C=C(c1ccccc1)C1COC2(CCCC2)OO1 (stereo unspecified)	Active
C=C(c1ccc(C)cc1)C1COC2(CCCC2)OO1 (stereo unspecified)	Active
C=C(c1ccc(OC)cc1)C1COC2(CCCC2)OO1 (stereo unspecified)	Active
C=C(c1ccc(F)cc1)C1COC2(CCCC2)OO1 (stereo unspecified)	Active
C=C(c1ccc(Cl)cc1)C1COC2(CCCCC2)OO1 (stereo unspecified)	Active

What follows are molecules tested on Mus musculus (assay: Evaluated for antimalarial activity against Plasmodium berghei in mice (Mus musculus) at 90 mg/kg; inactive).
Assay type: functional, organism-based
Parameters: dose 90 mg/kg

SMILES	Activity
C=C(c1ccccc1)C1(C)COC2(CCCC2)OO1 (stereo unspecified)	inactive
C=C(c1ccc(OC)cc1)C1COC2(CCCCC2)OO1 (stereo unspecified)	inactive
C=C(c1ccc(C)cc1)C1COC2(CCCCC2)OO1 (stereo unspecified)	inactive
C=C(c1ccc(Cl)cc1)C1(C)COC2(CCCCC2)OO1 (stereo unspecified)	inactive
C=C(c1ccc(Cl)cc1)C1(C)COC2(CCCC2)OO1 (stereo unspecified)	inactive
C=C(c1ccccc1)C1(C)COC2(CCCCC2)OO1 (stereo unspecified)	inactive
C=C(c1ccccc1)C1COC2(CCCCC2)OO1 (stereo unspecified)	inactive

What follows are molecules tested on Mus musculus (assay: Evaluated for antimalarial activity against Plasmodium berghei in mice (Mus musculus) at 30 mg/kg on day 6).
Assay type: functional

SMILES	Suppression
C=C(c1ccc(Cl)cc1)C1COC2(CCCC2)OO1 (stereo unspecified)	>90%
C=C(c1ccccc1)C1COC2(CCCC2)OO1 (stereo unspecified)	>90%

Reference: ChEMBL document CHEMBL1128628, “in vivo potent antimalarial 1,2,4-trioxanes: Synthesis and activity of 8-(-arylvinyl)-6,7,10-trioxaspiro[4,5]decanes and 3-(-arylvinyl)-1,2,5-trioxaspiro[5,5]undecanes against Plasmodium berghei in mice” (1995)
